BindingDB's records for doi:10.1124/jpet.104.079301 (University of Li&Eagrove;Ge, 2005)

Biological target: Thromboxane A2 receptor (Homo sapiens, UniProt P21731)
Sequence (P21731 as listed by the source): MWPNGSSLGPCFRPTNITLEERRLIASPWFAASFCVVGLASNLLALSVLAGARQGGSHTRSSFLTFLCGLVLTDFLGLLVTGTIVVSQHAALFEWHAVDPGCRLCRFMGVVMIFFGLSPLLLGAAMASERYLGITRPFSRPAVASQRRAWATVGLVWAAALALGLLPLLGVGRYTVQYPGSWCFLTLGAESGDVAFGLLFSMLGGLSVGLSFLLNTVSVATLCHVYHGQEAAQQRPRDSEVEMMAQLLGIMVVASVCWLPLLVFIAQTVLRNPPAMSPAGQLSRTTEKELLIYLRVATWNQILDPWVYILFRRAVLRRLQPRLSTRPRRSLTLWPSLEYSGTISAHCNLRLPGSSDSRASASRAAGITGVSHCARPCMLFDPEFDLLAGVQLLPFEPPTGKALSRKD

| Ki [nM] | Compound |
| --- | --- |
| 3.1 | CCCCCNC(=O)NS(=O)(=O)c1cc([N+](=O)[O-])ccc1Nc1ccc(C)cc1 |
| 0.8 | Cc1ccc(Nc2ccc([N+](=O)[O-])cc2S(=O)(=O)NC(=O)NC(C)(C)C)cc1 [BM 573] |
